Data on 18 molecules can be found in patent publication US20120122931A1, “INDOLE DERIVATIVE OR PHARMACEUTICALLY ACCEPTABLE SALT THEREOF” (KISSEI PHARMACEUTICAL CO., LTD., priority 2009, published 2012).

Values joined by “and” are separate entries in the source; they are usually repeats but may differ in a detail not shown here. Equal entries are not always repeated.

For one assay, the target named is T1, rat EP1 receptor (Rattus norvegicus, UniProt P70597).
T1 construct: expressed in transfected cells; host or cells: COS-1 cells, transient transfection with Lipofectamine 2000
T1 sequence (P70597 1-405): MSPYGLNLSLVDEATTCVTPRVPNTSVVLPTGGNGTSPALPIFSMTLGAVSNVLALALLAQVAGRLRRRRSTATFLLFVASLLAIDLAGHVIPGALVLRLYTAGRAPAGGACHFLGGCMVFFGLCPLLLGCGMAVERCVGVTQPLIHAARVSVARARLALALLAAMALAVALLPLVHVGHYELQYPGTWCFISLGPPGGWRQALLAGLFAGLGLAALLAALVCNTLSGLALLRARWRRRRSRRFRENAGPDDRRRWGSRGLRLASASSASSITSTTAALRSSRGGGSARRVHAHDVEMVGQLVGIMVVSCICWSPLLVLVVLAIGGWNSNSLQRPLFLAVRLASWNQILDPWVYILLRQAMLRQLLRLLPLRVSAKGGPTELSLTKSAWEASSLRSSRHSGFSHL
The assay is described as follows: Test for confirmation of EP1 receptor antagonism: inhibition of prostaglandin E2-induced increase in intracellular calcium concentration (Method A or Method B). The class given is cell-based. The note with it: rat EP1 receptor-expressing cells, prostaglandin E2 10 nM. The protocol:
(1) Preparation of Rat EP1 Expression vector
Using Rat Kidney BD Marathon-Ready cDNA (Nippon Becton Dickinson Company, Ltd.) as a template, a forward primer shown in SEQ ID NO. 1, and a reverse primer shown in SEQ ID NO. 2, a first run of PCR was carried out using KOD-Plus-Ver 2.0 (Toyobo Co., Ltd.). Further, using this amplification product as a template, a forward primer shown in SEQ ID NO. 3, and a reverse primer shown in SEQ ID NO. 4, a second run of PCR was carried out in the same manner. The amplification product obtained by the second run of PCR was incorporated into a vector (pcDNA3.1 D/V5-His-TOPO (registered trademark), Invitrogen Japan K. K.). By a conventional method, the vector containing this amplification product was introduced to E. coli (One Shot TOP10 Competent Cells, Invitrogen Corporation) to transform. This transformed E. coli was cultured in an LB agar medium for one day. After the culture, colonies were selected and cultured in an LB liquid medium containing 50 μg/mL of ampicillin. After the culture, the vector was purified using a QIAprep Spin Miniprep Kit (Qiagen K. K.). The base sequence of the insertion site of this vector (SEQ ID NO. 5) was compared with the rat EP1 base sequence (Ptger1) registered as an accession number NM_013100 in well-known database (NCBI), and as a result, they all matched except for a single base. Further, the amino acid sequence translated by the base sequence completely matched the amino acid sequence of the rat EP1 receptor registered as an NCBI accession number NP_037232. Therefore, it was confirmed that the cloned gene sequence was a base sequence of the rat EP1 receptor and the obtained amino acid sequence was that of the rat EP1 receptor. The pcDNA3.1 D/V5-His-TOPO (registered trademark) to which the nucleic acid shown in SEQ ID NO. 5 had been inserted was taken as a rat EP1-expressing vector.
(2) Preparation of Rat EP1 Receptor-Expressing Cells
COS-1 cells (Dainippon Sumitomo Pharma Co., Ltd.) were cultured until it reached confluence in an incubator at 37° C. under a 5% CO2 gas condition, using a D-MEM liquid medium (high glucose and L-glutamine contained, Invitrogen Corporation) to which a penicillin-streptomycin solution (Invitrogen Corporation, final concentration: 100 U/mL as benzylpenicillin; 100 μg/mL as streptomycin) as an antibiotic, MEM nonessential amino acids (Invitrogen Corporation, final Concentration: 0.1 mM), and fetal calf serum (Sanko Junyaku Co., Ltd., final concentration: 10%) were added.
(2-2) COS-1 Cell Subculture
The cells that had reached confluence were stripped with 0.05% trypsin/0.53 mM EDTA 4Na (Invitrogen Japan K. K.) and resuspended in the above liquid medium. The resuspended cells were diluted and cultured in the above liquid medium at a spread ratio from 1:4 to 1:8.
(2-3) Preparation of Cells for Introduction of Rat EP1-Expressing Vector
The cells that had reached confluence were stripped with 0.05% trypsin/0.53 mM EDTA.4Na, and resuspended in a D-MEM liquid medium (high glucose and L-glutamine contained, Invitrogen Corporation) to which an MEM nonessential amino acid (final concentration: 0.1 mM) and fetal calf serum (final concentration: 10%) were added. In each well of a Poly D-lysine-coated 96-well microplate (BD BioCoat (registered trademark), Nippon Becton Dickinson Company, Ltd.), this resuspended cell suspension culture was prepared to be 5×10^4 cells/well in 100 μL of the liquid medium, and seeded thereon. After seeding, the cells were cultured in an incubator at 37° C. under a 5% CO2 gas condition. At a point when the cells for introduction of a rat EP1-expressing vector were adhered (about 2 hours after seeding), introduction of the rat EP1-expressing vector was carried out in the following order.
(2-4) Introduction of Rat EP1-Expressing Vector
For introduction of the rat EP1-expressing vector, Lipofectamine 2000 (Invitrogen Japan K. K.) was used. […]
A general note: Calcium flux is commonly read through the fluorescence of an indicator in the cells.

The subject of assay [1] is sulprostone-induced bladder contraction. The assay is described as follows: Inhibitory effect of compound on sulprostone-induced bladder contraction. It is filed as in vivo. The note with it: test agent 1.0 mg/kg intravenously, sulprostone 0.3 mg/kg subcutaneously, female SD rats. The protocol:
Female SD rats were used. Under urethane anesthesia (1.25 g/kg, administered subcutaneously), a tracheal cannula (Size 8, HIBIKI) and a femoral vein cannula for administration (23G needle-equipped PESO) were inserted thereinto. The bladder cannula (PESO) was inserted from the bladder apex. The bladder cannula was connected to a three-way stopcock, and then, one was connected to a pressure transducer and the other was connected to a syringe filled with saline. Saline was injected to the bladder at an injection rate of 3.6 mL/hour and the bladder contraction pressure was recorded at the time of injection with a recorder (RECTI-HORITZ-8K, NEC Corporation). After 10 minutes from stabilization of the bladder contraction pressure during urination, sulprostone was administered subcutaneously (0.3 mg/kg). Then, at the time point when the bladder contraction pressure became constant, a test agent was administered intravenously (1.0 mg/kg). An average bladder contraction pressure during the 10 minutes period before administration of sulprostone was taken as a baseline (0%). Further, an average bladder contraction pressure during the 10 minutes period before administration of the test agent was taken as a maximum bladder contraction pressure (100%). […] The ratio of this measured value to the maximum bladder contraction pressure was calculated by the following equation and taken as an average bladder contraction rate after administration of the test agent: (Average Bladder Contraction Rate after Administration of Test Agent (%))=(Average Bladder Contraction Pressure after Administration of Test Agent)/(Maximum Bladder Contraction Pressure). In addition, the difference between the maximum bladder contraction rate (100%) and the average bladder contraction rate (%) after administration of the test agent was calculated by the following equation and taken as a bladder contraction inhibition rate of the test agent: (Bladder Contraction Inhibition Rate)=100%−(Average Bladder Contraction Rate after Administration of Test Agent (%)).

Where [2] appears, read: Method A (Fluo-4 NW, FlexStation).
Where [3] appears, read: Method B (Calcium kit II Fluo 4, FDSS 7000).

The IC50 is the concentration needed to halve the response being measured. Regarding `COc1ccc2c(Cc3cccc(C(=O)O)n3)c(-c3ccccc3)[nH]c2c1` [Example 4-1, 6-(6-methoxy-2-phenyl-1H-indol-3-ylmethyl)pyridine-2-carboxylic acid], the IC50 on rat EP1 receptor (setting [2]) is 10 nM. In addition, in assay [1], the “Bladder Contraction Inhibition Rate (%) 15 Minutes” value was 90.1% and the “Bladder Contraction Inhibition Rate (%)” value is given as 94.2%.

Regarding `COc1ccc2c(Cc3cccc(C(=O)O)c3)c(-c3ccccc3)[nH]c2c1` [Example 4-2, 3-(6-methoxy-2-phenyl-1H-indol-3-ylmethyl)benzoic acid], the IC50 on rat EP1 receptor (setting [2]) turned out to be 32 nM. Moreover, in assay [1], the “Bladder Contraction Inhibition Rate (%) 15 Minutes” value came to 78.3% and the “Bladder Contraction Inhibition Rate (%)” value stood at 80.4%.

As for `COc1ccc2c(Cc3cccc(C(=O)O)n3)c(-c3ccsc3)[nH]c2c1` [Example 11-1, 6-(6-methoxy-2-thiophen-3-yl-1H-indol-3-ylmethyl)pyridine-2-carboxylic acid], at rat EP1 receptor (setting [2]), the IC50 was 11 nM. In assay [1], the “Bladder Contraction Inhibition Rate (%) 15 Minutes” value stood at 86.1% and the “Bladder Contraction Inhibition Rate (%)” value is on record as 76.8%.

For the molecule `COc1ccc2c(Cc3cccc(C(=O)O)n3)c(-c3cccc(F)c3)[nH]c2c1` [Example 11-5, 6-[2-(3-fluorophenyl)-6-methoxy-1H-indol-3-ylmethyl]pyridine-2-carboxylic acid], the IC50 on rat EP1 receptor (setting [3]) was 14 nM. In assay [1], the “Bladder Contraction Inhibition Rate (%) 15 Minutes” value stood at 79.7% and the “Bladder Contraction Inhibition Rate (%)” value stood at 81.9%.

For `COc1cc2[nH]c(-c3ccc(F)cc3)c(Cc3cccc(C(=O)O)n3)c2cc1C` [Example 16-85, 6-[2-(4-fluorophenyl)-6-methoxy-5-methyl-1H-indol-3-ylmethyl]pyridine-2-carboxylic acid], the IC50 at rat EP1 receptor (setting [3]) came to 18 nM.

On to `COc1cc2c(Cc3cccc(C(=O)O)n3)c(-c3ccsc3)[nH]c2cc1Cl` [Example 16-86, 6-(6-chloro-5-methoxy-2-thiophen-3-yl-1H-indol-3-ylmethyl)pyridine-2-carboxylic acid], for which, on rat EP1 receptor (setting [3]), the IC50 came out at 18 nM.

`COc1cc2[nH]c(C(C)(C)C)c(Cc3cccc(C(=O)O)n3)c2cc1Cl` [Example 16-89, 6-(2-tert-butyl-5-chloro-6-methoxy-1H-indol-3-ylmethyl)pyridine-2-carboxylic acid]: the IC50 at rat EP1 receptor (setting [3]) came out at 22 nM.

On to `Cc1cc2c(Cc3cccc(C(=O)O)n3)c(-c3ccsc3)[nH]c2cc1Cl` [Example 16-92, 6-(6-chloro-5-methyl-2-thiophen-3-yl-1H-indol-3-ylmethyl)pyridine-2-carboxylic acid], for which the IC50 on rat EP1 receptor (setting [3]) is 30 nM.

For `CCOc1cc2[nH]c(-c3ccsc3)c(Cc3cccc(C(=O)O)n3)c2cc1C` [Example 16-93, 6-(6-ethoxy-5-methyl-2-thiophen-3-yl-1H-indol-3-ylmethyl)pyridine-2-carboxylic acid], at rat EP1 receptor (setting [3]), the IC50 was 46 nM.

`COc1cc2[nH]c(C(C)(C)C)c(Cc3cccc(C(=O)O)n3)c2cc1F` [Example 16-97, 6-(2-tert-butyl-5-fluoro-6-methoxy-1H-indol-3-ylmethyl)pyridine-2-carboxylic acid]: the IC50 on rat EP1 receptor (setting [3]) worked out at 32 nM.

For the molecule `COc1cc2[nH]c(C(C)(C)C)c(Cc3cccc(C(=O)O)n3)c2cc1C` [Example 16-98, 6-(2-tert-butyl-6-methoxy-5-methyl-1H-indol-3-ylmethyl)pyridine-2-carboxylic acid], the IC50 on rat EP1 receptor (setting [3]) was determined as 47 nM.

Regarding `Cc1cc2c(Cc3cccc(C(=O)O)n3)c(-c3ccccc3)[nH]c2cc1C1CC1` [Example 16-100, 6-(6-cyclopropyl-5-methyl-2-phenyl-1H-indol-3-ylmethyl)pyridine-2-carboxylic acid], the IC50 at rat EP1 receptor (setting [3]) was 44 nM and 26 nM.

For the molecule `Cc1cc2c(Cc3cccc(C(=O)O)n3)c(-c3ccsc3)[nH]c2cc1C1CC1` [Example 16-102, 6-(6-cyclopropyl-5-methyl-2-thiophen-3-yl-1H-indol-3-ylmethyl)pyridine-2-carboxylic acid], the IC50 on rat EP1 receptor (setting [3]) was 49 nM.

On to `COc1cc2c(Cc3cccc(C(=O)O)n3)c(-c3ccoc3)[nH]c2cc1Cl` [Example 16-105, 6-(6-chloro-2-furan-3-yl-5-methoxy-1H-indol-3-ylmethyl)pyridine-2-carboxylic acid], for which, at rat EP1 receptor (setting [3]), the IC50 worked out at 26 nM.

Regarding `CCC(C)c1[nH]c2cc(OC)c(Cl)cc2c1Cc1cccc(C(=O)O)n1` (centres unmarked) [Example 16-107, 6-(2-sec-butyl-5-chloro-6-methoxy-1H-indol-3-ylmethyl)pyridine-2-carboxylic acid], the IC50 at rat EP1 receptor (setting [3]) stood at 40 nM.

As for `COc1cc2c(Cc3cccc(C(=O)O)n3)c(-c3ccsc3)[nH]c2cc1C` [Example 16-108, 6-(5-methoxy-6-methyl-2-thiophen-3-yl-1H-indol-3-ylmethyl)pyridine-2-carboxylic acid], at rat EP1 receptor (setting [3]), the IC50 was 19 nM.

For the molecule `COc1cc2[nH]c(C(C)C)c(Cc3cccc(C(=O)O)n3)c2cc1Cl` [Example 16-109, 6-(5-chloro-2-isopropyl-6-methoxy-1H-indol-3-ylmethyl)pyridine-2-carboxylic acid], on rat EP1 receptor (setting [3]), the IC50 came to 35 nM.

Take `COc1cc2[nH]c(C(C)C)c(Cc3cccc(C(=O)O)n3)c2cc1F` [Example 18-1, 6-(5-fluoro-2-isopropyl-6-methoxy-1H-indol-3-ylmethyl)pyridine-2-carboxylic acid]: at rat EP1 receptor (setting [3]), the IC50 is 39 nM.
